Measured values taken from patent publication US20150284430A1, “APPLICATION OF SP PEPTIDE OR DERIVATIVE THEREOF IN PREPARING MEDICINES FOR PREVENTING OR TREATING ASTHMA” (priority 2012, published 2015).

System: allergic asthma mouse model induced by a combination of ovalbumin and adjuvant
Assay: Lung tissue histopathologic examination and lesion score, ovalbumin/aluminium hydroxide allergic asthma mouse model
Format: in vivo
Details: positive medicines group, dexamethasone 0.9 μg/kg·d i.p. every other day x15 from week 15
Protocol: Preparation of sensitized liquid: prepare in a proportion of dissolving 10 ug ovalbumin and 2 mg aluminium hydroxide in 0.5 ml physiological saline, and use it right after being prepared.
On day 1, day 7 and day 14, the mice of all groups (the model group, the preventive administration groups, the treatment administration groups, and the positive medicines group) apart from the blank control group are injected intraperitoneally with 0.5 ml freshly prepared sensitized liquid. The blank control group is injected intraperitoneally with an equal volume of physiological saline.
Since day 21 (i.e., starting from week 4), the mice of all groups apart from the blank control group are placed in a 16 L closed container every fourth days, make the mice inhale 1 wt % ovalbumin physiological saline by ultrasonic nebulization, with an inhalation duration of 25 min/d and a nebulization flow rate of 3 ml/min, for twice a week to induce asthma, and the process continues until week 19. […]
Lung tissue lesions (including bronchia and perivascular interstitial edema, alveolar wall congestion or emphysema) are marked respectively as 1, 2, 3 and 4 in ascending order of severity, 0 stands for no obvious lesions, and 0.5 for extreme mild lesions. All scores are accumulated, and a mean score (±SD) of each mouse in each group is calculated, and a higher score indicates a more severe level of lesions. […]

C[C@@H]1C[C@H]2[C@@H]3CCC4=CC(=O)C=C[C@]4(C)[C@@]3(F)[C@@H](O)C[C@]2(C)[C@@]1(O)C(=O)CO [positive drug, dexamethasone]
inflammatory cells infiltration (histopathology, FIG. 6): infiltration with a few inflammatory cells | pulmonary interstitial edema (histopathology, FIG. 6): mild pulmonary interstitial edema
